Reference: patent US20090233899A1, “Crystalline Modification of Cefuroximaxetil” (Gruenenthal GmbH, priority 2006, published 2009)

Test: Binary mixtures of the ε-modification with the α-, β- or γ-modification in methanol and acetone (relative thermodynamic stability)
Format: physicochemical

SMILES: CO/N=C(\C(=O)N[C@@H]1C(=O)N2C(C(=O)OC(C)OC(C)=O)=C(COC(N)=O)CS[C@H]12)c1ccco1 (stereo partly shown) [ε-modification, cefuroximaxetil]
- thermodynamic stability relative to the other crystalline modifications: more stable than the α-, β- or γ-modification
